Reference: US20220144826A1, “Heteroaromatic and Heterobicyclic Aromatic Derivatives for the Treatment of Ferroptosis-Related Disorders” (COLLABORATIVE MEDICINAL DEVELOPMENT, LLC, priority 2019, published 2022)

Tested on: N27 rat dopaminergic neural cells
Assay: MTT assay in N27 rat dopaminergic neural cells: inhibition of RSL3-induced cell death (ferroptosis)
Assay type: cell-based
Details: Rattus norvegicus, ferroptosis induced by 0.5 μM RSL3, 24 hours, viability by MTT
Method: MTT Assay in N27 Rat Dopaminergic Neural Cells
N27 rat dopaminergic neural cells (Millipore, SCC048) were cultured in RPMI-1640 media (Wisent, 350-000) supplemented with 1×GlutaMAX (Gibco, 35050-061), 10% FBS (embryonic stem cell qualified; Wisent, 920-040), and 1× Penicillin-Streptomycin (Wisent, 450-201). Cells were grown in humidified tissue culture incubator at 37° C. with 5% CO2, for up to 10 passages. To evaluate the ability of test compounds to inhibit RSL3-induced cell death, N27 cells were seeded in clear 96-well tissue culture plates (Sarstedt, 83.3924) at a density of 15,000 cells/well. On the next day, the medium was changed to fresh complete RPMI-1640. Eight-point dilution series of test compounds were added to the cells. Then, ferroptosis was induced by addition of 0.5 μM RSL3 (vehicle-treated cells served as control). Ferrostatin-1 (Fer-1) was included in each assay as control inhibitor of ferroptosis. Plates were incubated for 24 hours at 37° C. in a tissue culture incubator, then cell viability was determined by MTT assay. Briefly, Thiazolyl Blue Tetrazolium Bromide [3-(4,5-dimethylthiazol-2-yl)-2,5-diphenyltetrazolium bromide or “MTT” ] (Sigma) stock solution (5 mg/mL in PBS, sterilized by filtration) was diluted 1:1 with complete growth medium, and added on the cells to a final concentration of 0.5 mg/mL. Cells were incubated with MTT for 4 hours at 37° C., protected from light, in a humidified, 5% CO2 atmosphere. Medium was then completely removed from the wells by gentle aspiration and converted MTT formazan crystals were dissolved in 150 μL of DMSO. Absorbance of converted dye was measured at 595 nm with background subtraction at 690 nm using the BioTek Cytation5 Microplate Reader. Blank reading (absorbance from wells containing media and vehicle only, no cells) was removed from all sample wells. Viability was calculated as a percentage of control cells (vehicle-treated cells were set as 100% viability). Dose-response curves were drawn and IC50 values were calculated using GraphPad Prism software, version 7.

CCCCC(O)c1cc2c(c(NC(C)(C)C)n1)NCC(C(F)(F)F)C2 (centres unmarked) [Compound R-812, 1-[8-(tert-butylamino)-3-(trifluoromethyl)-1,2,3,4-tetrahydro-1,7-naphthyridin-6-yl]pentan-1-ol]
IC50 (N27, 24 h): 40 nM

CC(C)(C)C(=O)c1nc2c(c(NC3CCCC3)n1)NCCC2 [Compound A-35, 1-[4-(cyclopentylamino)-5,6,7,8-tetrahydropyrido[3,2-d]pyrimidin-2-yl]-2,2-dimethyl-propan-1-one]
IC50 (N27, 24 h): 248 nM

OC(c1ccccc1)c1nc2c(c(NC3CCCC3)n1)NCCC2 (centres unmarked) [Compound A-10, [4-(cyclopentylamino)-5,6,7,8-tetrahydropyrido[3,2-d]pyrimidin-2-yl]-phenyl-methanol]
IC50 (N27, 24 h): 71 nM

CCCCC(=O)c1cc2c(c(-n3ccnc3)c1)NCCC2 [Compound B-006, 1-(8-imidazol-1-yl-1,2,3,4-tetrahydroquinolin-6-yl)pentan-1-one]
IC50 (N27, 24 h): > 3000 nM

CCCCC(O)c1nc2c(c(NC3CCCC3)n1)NCCC2 (centres unmarked) [Compound C-79, 1-[4-(cyclopentylamino)-5,6,7,8-tetrahydropyrido[3,2-d]pyrimidin-2-yl]pentan-1-ol]
IC50 (N27, 24 h): 112 nM

CCCCC(=O)c1cc2c(c(NC(C)(C)C)n1)NCCC2 [Compound S-168, 1-[8-(tert-butylamino)-1,2,3,4-tetrahydro-1,7-naphthyridin-6-yl]pentan-1-one]
IC50 (N27, 24 h): 13 nM

CC1(Nc2nc(-c3ccc(F)cc3)ccc2NC2CCC2)CCOC1 (centres unmarked) [Compound P-54, N^3-cyclobutyl-6-(4-fluorophenyl)-N^2-(3-methyltetrahydrofuran-3-yl)pyridine-2,3-diamine]
IC50 (N27, 24 h): 3 nM

CCCC#Cc1nc2c(c(NC3CCCC3)n1)NCCC2 [Compound A-27, N-cyclopentyl-2-pent-1-ynyl-5,6,7,8-tetrahydropyrido[3,2-d]pyrimidin-4-amine]
IC50 (N27, 24 h): 34 nM

CCCC(=O)c1ccc(N)c(NC2CC(F)(F)C2)n1 [Compound P-46, 1-[5-amino-6-[(3,3-difluorocyclobutyl)amino]-2-pyridyl]butan-1-one]
IC50 (N27, 24 h): 498 nM

CC(=O)c1nc2c(c(NC3CCCC3)n1)NCCC2 [Compound C-92, 1-[4-(cyclopentylamino)-5,6,7,8-tetrahydropyrido[3,2-d]pyrimidin-2-yl]ethanone]
IC50 (N27, 24 h): 2070 nM

CCCCC(O)c1nc2c(c(Nc3ccccn3)n1)NCCC2 (centres unmarked) [Compound G-63, 1-[4-(2-pyridylamino)-5,6,7,8-tetrahydropyrido[3,2-d]pyrimidin-2-yl]pentan-1-ol]
IC50 (N27, 24 h, cell unit uM): > 10000 nM

c1ccc(-c2cn(-c3nc4c(c(NC5CCCC5)n3)NCCC4)nn2)cc1 [Compound A-31, N-cyclopentyl-2-(4-phenyltriazol-1-yl)-5,6,7,8-tetrahydropyrido[3,2-d]pyrimidin-4-amine]
IC50 (N27, 24 h): 21 nM

CCCCCc1nc(NC2CCCC2)c2c(n1)OCCN2 [Compound B-711, N-cyclopentyl-2-pentyl-5H,6H,7H-pyrimido[4,5-b][1,4]oxazin-4-amine]
IC50: 41 nM

N#Cc1nc2c(c(NC3CCCC3)n1)NCCC2 [Compound F-38, 4-(cyclopentylamino)-5,6,7,8-tetrahydropyrido[3,2-d]pyrimidine-2-carbonitrile]
IC50 (N27, 24 h): 812 nM

CCC(C)Nc1ccc(-c2ccc(C)cc2)nc1NC1CCCC1 (centres unmarked) [Compound H-61, N^2-cyclopentyl-6-(p-tolyl)-N^3-sec-butyl-pyridine-2,3-diamine]
IC50 (N27, 24 h): 7 nM

Clc1nc2c(c(NC3CCCC3)n1)NCCC2 [Compound J-84]
IC50 (N27, 24 h): 273 nM

c1cc(-c2ccc(NC3COC3)c(NC3CCCC3)n2)ccn1 [Compound H-77, N^2-cyclopentyl-N^3-(oxetan-3-yl)-6-(4-pyridyl)pyridine-2,3-diamine]
IC50 (N27, 24 h): 13 nM

CC(C)(C)Nc1nc(OCC(F)(F)F)cc2c1NCC(C(F)(F)F)C2 (centres unmarked) [Compound S-101, N-tert-butyl-6-(2,2,2-trifluoroethoxy)-3-(trifluoromethyl)-1,2,3,4-tetrahydro-1,7-naphthyridin-8-amine]
IC50 (N27, 24 h): 1260 nM

CCCCC(=O)c1cc2c3c(c1)nc(C(F)(F)F)n3CCC2 [Compound B-099, 1-[2-(trifluoromethyl)-1,3-diazatricyclo[6.3.1.04,12]dodeca-2,4 (12),5,7-tetraen-6-yl]pentan-1-one]
IC50 (N27, 24 h): > 3000 nM

c1nc2c(c(NC3CCCC3)n1)NCCC2 [Compound C-84, N-cyclopentyl-5,6,7,8-tetrahydropyrido[3,2-d]pyrimidin-4-amine]
IC50 (N27, 24 h): 646 nM

CCCCCc1nc(NC2CCCC2)c2c(n1)SCCN2 [Compound B-601, N-cyclopentyl-2-pentyl-5H,6H,7H-pyrimido[4,5-b][1,4]thiazin-4-amine]
IC50 (N27, 24 h): 3 nM

CCC(C)Nc1cnc(-c2cccnc2)nc1NC1CCCC1 (centres unmarked) [Compound F-78, N^4-cyclopentyl-2-(3-pyridyl)-N^5-sec-butyl-pyrimidine-4,5-diamine]
IC50 (N27, 24 h): 89 nM

CC1(Nc2nc(C(F)(F)F)ccc2NC2CCOC2)CCOC1 (centres unmarked) [Compound K-67, N^2-(3-methyltetrahydrofuran-3-yl)-N^3-tetrahydrofuran-3-yl-6-(trifluoromethyl)pyridine-2,3-diamine]
IC50 (N27, 24 h): 355 nM

CCCCCc1ccc(NC(C)CC)c(NC2CCCC2)n1 (centres unmarked) [Compound H-72, N^2-cyclopentyl-6-pentyl-N^3-sec-butyl-pyridine-2,3-diamine]
IC50 (N27, 24 h): 6 nM

CCC(C)Nc1ccc(-c2cccnc2)nc1NC1CCCC1 (centres unmarked) [Compound H-74, N^2-cyclopentyl-6-(3-pyridyl)-N^3-sec-butyl-pyridine-2,3-diamine]
IC50 (N27, 24 h): 5 nM

Cc1ccc(-c2ccc(NC(C)(C)C)c(NC3CCCC3)n2)cc1 [Compound A-98, N^3-tert-butyl-N^2-cyclopentyl-6-(p-tolyl)pyridine-2,3-diamine]
IC50 (N27, 24 h): 7 nM

CCCCCc1nc(NC2CCCC2)c2c(n1)S(=O)(=O)CCN2 [Compound B-602, N-cyclopentyl-8,8-dioxo-2-pentyl-6,7-dihydro-5H-pyrimido[4,5-b][1,4]thiazin-4-amine]
IC50 (N27, 24 h): ≥ 3000 nM

CCC(C)Nc1ccc(-c2ccncc2)nc1NC(C)(C)C (centres unmarked) [Compound P-22]
IC50 (N27, 24 h): 1 nM

CCCCC(O)c1cc2c(c(Nc3ccccn3)c1)NCCC2 (centres unmarked) [Compound B-250, 1-[8-(2-pyridylamino)-1,2,3,4-tetrahydroquinolin-6-yl]pentan-1-ol]
IC50 (N27, 24 h): 139 nM

CCCCC(O)c1nc2c(c(N3CCCC3)n1)NCCC2 (centres unmarked) [Compound E-09]
IC50 (N27, 24 h): 492 nM

c1ncc(-c2ccc(NC3COC3)c(NC3CCCC3)n2)cn1 [Compound H-84, N^2-cyclopentyl-N^3-(oxetan-3-yl)-6-pyrimidin-5-yl-pyridine-2,3-diamine]
IC50 (N27, 24 h): 32 nM

CCCCC(=O)c1cc(N)c2c(c1)CCCN2S(=O)(=O)CC(C)C [Compound B-060]
IC50 (N27, 24 h): 4020 nM

CCCCCc1nc(NC2CCOC2)c2c(n1)OCCN2 (centres unmarked) [Compound B-604, 2-pentyl-N-tetrahydrofuran-3-yl-6,7-dihydro-5H-pyrimido[4,5-b][1,4]oxazin-4-amine]
IC50 (N27, 24 h): 388 nM

CCCCCc1nc2c(c(NC3CCCC3)n1)NC(C)(C)CC2 [Compound B-917, N-cyclopentyl-6,6-dimethyl-2-pentyl-5H,6H,7H,8H-pyrido[3,2-d]pyrimidin-4-amine]
IC50 (N27, 24 h): > 3000 nM

CCC(C)Nc1cnc(-c2ccc(C)cc2)nc1NC1CCCC1 (centres unmarked) [Compound F-69, N^4-cyclopentyl-2-(p-tolyl)-N^5-sec-butyl-pyrimidine-4,5-diamine]
IC50 (N27, 24 h): 28 nM
